Data as given in patent publication US8765716B2, “Pharmaceutical composition containing docetaxel-cyclodextrin inclusion complex and its preparing process” (Meridian Laboratories, Inc., priority 2006, dated 2014).
Where two headings read alike, the source gives them in different places.

Experiments:
[1] = Inclusion solubilization test; type: physicochemical; conditions: thermodynamic from solid, docetaxel solubility in pure water, 25° C.
Procedure: Standard curve: 0.67 mg/ml docetaxel solution was prepared by dissolving docetaxel with ethanol, and diluted with pure water into […]˜20.1 μg/ml series solutions, then UV absorption value A was measured under 228 nm. A standard curve was plotted by A against concentration C (mg/ml) (A=13.881C+0.3577 (r=0.9998)).
The excessive docetaxel or inclusion in the pure water was oscillated for 72 h at 25° C.±1° C., filtered and placed still.

[2] = Solid inclusion stability, 5-day acceleration test (light, high temperature, high humidity), HPLC content; type: physicochemical
Procedure: (§1) HPLC chromatographic conditions: chromatographic column ODS Cig (250 mm×4.6 mm); mobile phase: water:acetonitrile (53:47); flow rate: 1.0 ml/min; detection wavelength: 230 nm; detection time: 30.00 min; detection sensitivity: 1.0000AUFS.
Samples: docetaxel material; docetaxel/sulfobutyl-β-cyclodextrin inclusion (a, mass ratio of 1:17); docetaxel/hydroxypropyl-sulfobutyl-β-cyclodextrin inclusion (b, mass ratio of 1:17). Docetaxel materials and inclusions were divided into three portions of test samples equally and were subject to light, high temperature and high humidity acceleration tests respectively:
Samples were put in a sealed transparent container and then placed in an illumination box equipped with fluorescent light of 4500±500LX illumination intensity for 5 days. Sampling inspection analysis was conducted, and the test results were compared with the samples of 0 day.
Samples were placed in a clean sealed container at a temperature of 60° C. for 5 days. Sampling inspection analysis was conducted, and the test results were compared with the samples of 0 day.
Samples were placed in a sealed container of constant humidity at temperature of 25° C. and relative humidity of 90±5% for 5 days. Sampling inspection analysis was conducted, and the test results were compared with the samples of 0 day.

[3] = Docetaxel stability test in solution (HPLC assay); type: physicochemical; conditions: normal saline solution
Procedure: as §1
Under the aforesaid HPLC chromatographic conditions, some docetaxel raw materials; docetaxel/sulfobuty-β-cyclodextrin inclusion (a) with a mass ratio of 1:17 and docetaxel/hydroxypropy-sulfobuty-β-cyclodextrin inclusion (b) with a mass ratio of 1:17 were taken and dissolved with normal saline solution, diluted for 100 times after 30 min ultrasonic wave treatment, placed still, […]

[4] = system: tubulin; conditions: versus paclitaxel; cited from earlier work
[5] = system: advanced breast carcinoma; conditions: treatment of advanced breast carcinoma; cited from earlier work
[6] = cited from earlier work

## CC(=O)O[C@@]12CO[C@@H]1C[C@H](O)[C@@]1(C)C(=O)[C@H](O)C3=C(C)[C@@H](OC(=O)[C@H](O)[C@@H](NC(=O)OC(C)(C)C)c4ccccc4)C[C@@](O)([C@@H](OC(=O)c4ccccc4)[C@H]21)C3(C)C (relative stereo) [Docetaxel, [2aR-(2aα,4β,4aβ,6β,9α,(αR*,βS*),11α,12α,12aβ,12bα)]-β-[[(1,1-dimethylethoxy)carbonyl]amino]-α-hydroxyphenyl propionic acid [12b-acetoxy-12-benzoyloxy-2a,3,4,4a,5,6,9,10,11,12,12a,12b-dodecahydro-4,6,11-trihydroxyl-4-a,8,13,13-tetramethyl-5-oxo-7,11-methylene-1H-pentacyclo-ene[3,4]benzo[1,2-b]tetraoxacyclo-9-base]acetate trihydrate]
[1]
  solubility at 72 h: 2.9 µg/mL
[2]; 0 day
  Content (%) 0 day: 99.675%
[2]; 25° C., relative humidity 90±5%, 5 days
  Content (%) Hight humitdity: 83.877%
[2]; 60° C., 5 days
  Content (%) High temperature: 87.859%
[2]; 4500±500LX, 5 days
  Content (%) Light: 90.176%
[3]; diluted 100 times, 0 h
  Content (%) 0 h: 99.675%
[3]; diluted 100 times, 5 h
  Content (%) 5 h: 99.025%
[3]; diluted 100 times, 10 h
  Content (%) 10 h: 97.381%
[3]; diluted 100 times, 24 h
  Content (%) 24 h: 93.433%
[3]; diluted 100 times, 96 h
  Content (%) 96 h: 86.384%
[3]; in solution, read-out: half-life of sample decomposition in solution (converted)
  half-life: 15.1 days
[4]
  inhibitory activity of tubulin depolymerization relative to paclitaxel: about 2 times
[5]
  effective ratio: 49%
[6]; after injection
  incidence rate of moderate and severe hypersusceptibility: 25.9%
[6]; dosage 75 mg/m^2
  incidence rate of moderate hypersusceptibility or more: 31%
[6]; dosage 100 mg/m^2
  incidence rate of moderate hypersusceptibility or more: 41.3%
[6]; in vivo
  injection-part reaction rate: up to 13.3%
